Reference: PMC8456715 (International journal of biological macromolecules, 2020)

Experiments:
AtMAT1 = target: T1, AtMAT1 (Arabidopsis thaliana, UniProt P23686); test: isothermal titration calorimetry; assay type: binding
T1 sequence (P23686 1-393): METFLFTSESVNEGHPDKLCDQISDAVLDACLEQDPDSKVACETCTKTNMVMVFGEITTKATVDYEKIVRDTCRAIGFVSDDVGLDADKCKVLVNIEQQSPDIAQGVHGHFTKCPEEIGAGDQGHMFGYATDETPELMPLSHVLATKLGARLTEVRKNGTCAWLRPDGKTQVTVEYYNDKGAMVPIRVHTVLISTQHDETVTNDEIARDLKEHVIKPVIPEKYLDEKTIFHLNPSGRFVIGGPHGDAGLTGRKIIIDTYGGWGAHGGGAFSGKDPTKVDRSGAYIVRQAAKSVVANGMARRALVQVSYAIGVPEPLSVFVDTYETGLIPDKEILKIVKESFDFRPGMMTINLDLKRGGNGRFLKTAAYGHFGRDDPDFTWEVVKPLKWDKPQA

AtMAT2 = target: T2, AtMAT2 (Arabidopsis thaliana, UniProt P17562); test: X-ray crystal structure; assay type: binding
T2 sequence (P17562 1-392): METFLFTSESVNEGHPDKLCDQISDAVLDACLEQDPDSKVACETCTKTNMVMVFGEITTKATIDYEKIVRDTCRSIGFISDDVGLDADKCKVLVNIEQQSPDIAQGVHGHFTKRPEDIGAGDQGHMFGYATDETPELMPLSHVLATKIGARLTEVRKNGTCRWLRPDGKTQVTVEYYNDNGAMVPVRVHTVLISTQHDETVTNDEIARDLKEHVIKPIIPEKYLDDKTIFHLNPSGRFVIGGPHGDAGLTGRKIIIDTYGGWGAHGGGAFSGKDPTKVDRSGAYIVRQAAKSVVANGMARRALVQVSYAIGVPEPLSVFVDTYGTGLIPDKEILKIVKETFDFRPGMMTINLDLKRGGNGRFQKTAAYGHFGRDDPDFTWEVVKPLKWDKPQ

Row | Structure (SMILES) | Kd (AtMAT1) [µM] | X-ray crystal structure (2.00 Å, soaking) (AtMAT2)
1 | NCCCCNCCCN [spermidine] | 0.654 | 
2 | Nc1ncnc2c1ncn2[C@@H]1O[C@H](COP(=O)(O)CP(=O)(O)OP(=O)(O)O)[C@@H](O)[C@H]1O [AMPCPP] |  | inside the catalytic site both, precatalytic Met and the ATP analogue, AMPCPP, revealed the exact pre-reaction state of the enzyme
